According to patent publication US11970494B2, “6-heteroaryloxy benzimidazoles and azabenzimidazoles as JAK2 inhibitors” (Ajax Therapeutics, Inc., priority 2021, dated 2024):

Experiment: Caco2 Permeability Assay
Type: in vitro ADME
Conditions: human
Method: Preparation of Caco-2 Cells: 50 μL and 25 mL of cell culture medium are added to each well of a Transwell® insert and reservoir, respectively. Then, the HTS Transwell® plates are incubated at 37° C., 5% CO2 for 1 hour before cell seeding. Caco-2 cell cells are diluted to 6.86×10^5 cells/mL with culture medium, and 50 μL of cell suspension are dispensed into the filter well of the 96-well HTS Transwell® plate. Cells are cultivated for 14-18 days in a cell culture incubator at 37° C., 5% CO2, 95% relative humidity. Cell culture medium is replaced every other day, beginning no later than 24 hours after initial plating.
Preparation of Stock Solutions: 10 mM stock solutions of test compounds are prepared in DMSO. The stock solutions of positive controls are prepared in DMSO at the concentration of 10 mM. Digoxin and propranolol are used as control compounds in this assay.
Assessment of Cell Monolayer Integrity: Medium is removed from the reservoir and each Transwell® insert and is replaced with prewarmed fresh culture medium. Transepithelial electrical resistance (TEER) across the monolayer is measured using Millicell Epithelial Volt-Ohm measuring system (Millipore, USA). The Plate is returned to the incubator once the measurement is done. The TEER value is calculated according to the following equation: TEER measurement (ohms)×Area of membrane (cm^2)=TEER value (ohm⋅cm^2). A TEER value greater than 230 ohm⋅cm^2 indicates a well-qualified Caco-2 monolayer.
Assay Procedure: The Caco-2 plate is removed from the incubator and washed twice with pre-warmed HBSS (10 mM HEPES, pH 7.4), and then incubated at 37° C. for 30 minutes. The stock solutions of control compounds are diluted in DMSO to get 1 mM solutions and then diluted with HBSS (10 mM HEPES, pH 7.4) to get 5 μM working solutions. The stock solutions of the test compounds are diluted in DMSO to get 1 mM solutions and then diluted with HBSS (10 mM HEPES and 4% BSA, pH 7.4) to get 5 μM working solutions. The final concentration of DMSO in the incubation system is 0.5%. To determine the rate of drug transport in the apical to basolateral direction. 75 μL of 5 μM working solutions of test compounds are added to the Transwell® insert (apical compartment) and the wells in the receiver plate (basolateral compartment) are filled with 235 μL of HBSS (10 mM HEPES and 4% BSA, pH 7.4). To determine the rate of drug transport in the basolateral to apical direction, 235 μL of 5 μM working solutions of test compounds are added to the receiver plate wells (basolateral compartment) and then the Transwell® inserts (apical compartment) are filled with 75 μL of HBSS (10 mM HEPES and 4% BSA, pH 7.4). Time 0 samples are prepared by transferring 50 μL of 5 μM working solution to wells of the 96-deepwell plate, followed by the addition of 200 μL cold methanol containing appropriate internal standards (IS). The plates are incubated at 37° C. for 2 hours. At the end of the incubation, 50 μL samples from donor sides (apical compartment for Ap→*Bl flux, and basolateral compartment for Bl→Ap) and receiver sides (basolateral compartment for Ap→Bl flux, and apical compartment for Bl→Ap) are transferred to wells of a new 96-well plate, followed by the addition of 4 volume of cold acetonitrile or methanol containing appropriate internal standards (IS). Samples are vortexed for 5 minutes and then centrifuged at 3,220 g for 40 minutes. An aliquot of 100 μL of the supernatant is mixed with an appropriate volume of ultra-pure water before LC-MS/MS analysis. To determine the Lucifer Yellow leakage after 2 hour transport period, stock solution of Lucifer yellow is prepared in ultra-pure water and diluted with HBSS (10 mM HEPES, pH 7.4) to reach the final concentration of 100 μM. 100 μL of the Lucifer yellow solution is added to each Transwell® insert (apical compartment), followed by filling the wells in the receiver plate (basolateral compartment) with 300 μL of HBSS (10 mM HEPES, pH 7.4). […]

Cn1c(Nc2cc3n(n2)CCCC3(F)F)nc2ncc(Oc3ccnc(NC(=O)N4CCC4)c3)c(C#N)c21 [Example I-30]
efflux ratio at 2 h, 5 μM (pH 7.4, Caco-2, 5 μM, read-out: Efflux Ratio (ER)): 2 to 5
Papp A→B at 2 h, 5 μM (pH 7.4, Caco-2, apical to basolateral, 5 μM): 3 ×10⁻⁶ cm/s
